Experimental data as given in patent US6767890B1, “Peptides having anti-cancer and anti-inflammatory activity” (priority 1998, dated 2004).

Legend:
Protein Kinase C - γ = Protein Kinase C - γ (Oryctolagus cuniculus, UniProt P10829); experiment: Protein Kinase C - γ enzyme assay; assay type: biochemical, rabbit; details: 100.0 μM; average of duplicate; negative = stimulation
Description: (§1) The peptide was further screened in vitro in a variety of enzyme and biochemical assays. Methods employed were adapted from the scientific literature to maximize reliability and reproducibility.
(§2) Unless otherwise indicated, the peptide was tested in duplicate at the concentrations indicated for each assay. Results presented in Table 10, “Results,” are the average of duplicate determinations, unless otherwise noted.
(§3) Enzyme assays were performed under conditions described in Table 8, “Experimental Conditions.”. The commercial suppliers and catalog numbers of substrates employed in this study are given in Table 7, “Material Sources.” The name, commercial source, and catalog numbers of concurrent reference compounds (controls) employed in this study are given in Table 9, “Reference Compound Data.” The reaction catalyzed by each enzyme is listed in Table 8, “Experimental Conditions.”
(§4) Biochemical assay results are presented in Table 10, as the percent inhibition of specific binding or activity, and unless noted are the average of duplicate tubes tested at each concentration.

Interleukin-1α = biological target: T1, Interleukin-1α (Mus musculus, UniProt P13504); experiment: Interleukin-1α radioligand binding; details: 10.0 μM; specific binding of [125I]IL-1 alpha; negative = stimulation
T1 construct: 3T3 cells; endogenous in cells; host or cells: Swiss 3T3 cells
T1 sequence (P13504 20-576): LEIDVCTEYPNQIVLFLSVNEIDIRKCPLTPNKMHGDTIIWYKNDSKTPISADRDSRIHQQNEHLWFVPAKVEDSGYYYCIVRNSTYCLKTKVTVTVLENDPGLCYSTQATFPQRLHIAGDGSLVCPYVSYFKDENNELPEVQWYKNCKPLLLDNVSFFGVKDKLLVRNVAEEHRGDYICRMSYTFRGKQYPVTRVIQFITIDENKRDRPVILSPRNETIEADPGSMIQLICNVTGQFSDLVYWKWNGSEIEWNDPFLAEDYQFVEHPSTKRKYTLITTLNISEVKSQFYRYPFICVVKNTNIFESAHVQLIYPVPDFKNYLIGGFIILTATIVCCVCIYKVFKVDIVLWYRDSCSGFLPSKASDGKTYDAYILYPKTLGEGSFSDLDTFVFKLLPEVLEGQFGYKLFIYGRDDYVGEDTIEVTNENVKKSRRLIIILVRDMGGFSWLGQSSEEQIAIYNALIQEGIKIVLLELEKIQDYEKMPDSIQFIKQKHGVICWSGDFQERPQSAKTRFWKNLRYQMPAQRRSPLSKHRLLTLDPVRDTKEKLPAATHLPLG
Description: as §1, with “reproducibility. The primary literature reference for each assay is listed in Table 11 opposite the results for each assay.” for “reproducibility.”
Results presented in Table 10, “Results,” are the average of duplicate determinations, unless otherwise noted.
Reference compounds were tested concurrently at 5 concentrations as an integral part of each assay to ensure the validity of the results obtained. […]
Maximum total binding and nonspecific binding were determined each time each assay was run. […]
Where inhibition constants (Ki) are presented, the Ki values were calculated using the equation of Cheng and Prusoff (Cheng, Y., Prusoff, W. H., Biochem. Pharmacol. […], 1973) using the observed IC50 of the tested compound, the concentration of radioligand employed in the assay, and the historical values for the Kd of the ligand (obtained experimentally). Where presented, the Hill Coefficient (nH), defining the scope of the competitive binding curve, was calculated using GraphPad Prism. […] Where IC50, Ki, and/or Hill Slope data is presented without Standard Error of the Mean (SEM), data are insufficient to be quantitative, and the values presented (Ki, IC50, nH) should be interpreted with caution. […]

Cyclooxygenase-1 = biological target: T2, Cyclooxygenase-1 (Ovis aries, UniProt P05979); experiment: Cyclooxygenase-1 enzyme assay; assay type: biochemical, ram; details: 300.0 μM; average of duplicate; negative = stimulation
T2 construct: ram seminal; from tissue; host or cells: ram seminal vesicle
T2 sequence (P05979 25-600): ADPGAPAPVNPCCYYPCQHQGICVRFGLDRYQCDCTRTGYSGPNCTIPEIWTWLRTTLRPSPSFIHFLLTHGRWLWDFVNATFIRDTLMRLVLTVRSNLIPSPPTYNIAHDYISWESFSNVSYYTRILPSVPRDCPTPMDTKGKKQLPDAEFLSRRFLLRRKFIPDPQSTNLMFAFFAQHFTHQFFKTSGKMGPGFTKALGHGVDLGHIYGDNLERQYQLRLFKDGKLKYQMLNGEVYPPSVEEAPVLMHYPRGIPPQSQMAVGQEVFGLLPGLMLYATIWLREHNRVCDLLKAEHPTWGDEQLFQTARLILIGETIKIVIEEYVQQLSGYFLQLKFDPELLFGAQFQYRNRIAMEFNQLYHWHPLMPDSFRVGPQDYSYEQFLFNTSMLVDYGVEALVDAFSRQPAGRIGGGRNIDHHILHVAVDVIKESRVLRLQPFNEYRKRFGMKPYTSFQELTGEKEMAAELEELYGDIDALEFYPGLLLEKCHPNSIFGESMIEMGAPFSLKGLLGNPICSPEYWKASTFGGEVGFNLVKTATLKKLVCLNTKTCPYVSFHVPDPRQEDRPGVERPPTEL
Description: as §1, §2, §3, §4

5-Lipoxygenase = biological target: T3, 5-Lipoxygenase (Rattus norvegicus, UniProt P12527); experiment: 5-Lipoxygenase enzyme assay; assay type: biochemical; details: 30.0 μM; average of duplicate; negative = stimulation
T3 construct: rat RBL-1 cells; endogenous in cells; host or cells: RBL-1 cells
T3 sequence (P12527 whole entry): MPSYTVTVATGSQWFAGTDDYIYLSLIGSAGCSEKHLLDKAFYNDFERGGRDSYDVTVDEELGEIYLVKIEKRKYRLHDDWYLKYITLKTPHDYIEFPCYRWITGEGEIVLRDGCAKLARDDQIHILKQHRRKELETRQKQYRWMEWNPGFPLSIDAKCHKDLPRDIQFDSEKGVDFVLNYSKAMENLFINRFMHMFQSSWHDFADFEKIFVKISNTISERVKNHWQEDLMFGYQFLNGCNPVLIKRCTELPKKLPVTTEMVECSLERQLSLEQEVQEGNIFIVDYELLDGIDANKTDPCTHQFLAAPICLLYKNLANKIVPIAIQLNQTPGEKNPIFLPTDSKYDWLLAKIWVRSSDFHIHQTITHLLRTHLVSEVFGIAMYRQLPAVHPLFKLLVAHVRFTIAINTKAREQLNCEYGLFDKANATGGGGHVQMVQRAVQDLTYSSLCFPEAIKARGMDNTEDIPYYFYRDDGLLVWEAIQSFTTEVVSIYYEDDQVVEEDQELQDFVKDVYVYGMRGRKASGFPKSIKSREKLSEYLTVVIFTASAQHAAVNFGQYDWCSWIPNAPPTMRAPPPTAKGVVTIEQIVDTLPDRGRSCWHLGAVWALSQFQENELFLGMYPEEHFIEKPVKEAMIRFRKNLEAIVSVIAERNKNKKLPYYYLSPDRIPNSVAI

Substance: LEU-PRO-PRO-SER-ARG [Peptide]
- % Inhibition (Protein Kinase C - γ): −6%
- % Inhibition (Interleukin-1α): 15%
- % Inhibition (Cyclooxygenase-1): 2%
- % Inhibition (5-Lipoxygenase): 0%
